# Assay results: publication PMC3201017, “Modification of the loops in the ligand-binding site turns avidin into a steroid-binding protein” (BMC Biotechnology, 2011)
# Where a name gives a salt, the structure may show the parent alone.
# B1: steroid-binding avidin mutant sbAvd-1 (designed binder)
# chain: ARKCSLTGKWTNRMNHNMTIGAVNSRGEFTGTYITAVTATSNEIKESPLHGTQNTINKRTQPTFGFTVNWKFSESTTVFTGQCFIDRNGKEVLKTMWLLRSSVNDIGDDWKATRVGINIFTRLRTQKE
# notes: chicken avidin (Avd) with the loop between beta-strands 1 and 2 (N12, D13, L14, G15, S16) changed to N12, R13, M14, N15, H16; selected by phage display from the Avd L1,2 library; source: E. coli BL21-AI, pET101/D, secreted with the OmpA signal of Bordetella avium, purified (Ni-NTA)
# B2: steroid-binding avidin mutant sbAvd-2 (designed binder)
# chain: ARKCSLTGKWTNRMNHNMTIGAVNSRGEFTGTYIATVNATSNEIKESPLHGTQNTINKRTQPTFGFTVNWKFSESTTVFTGQCFIDRNGKEVLKTMWLLRSSVNDIGDDWKATRVGINIFTRLRTQKE
# notes: selected by phage display from the sbAvd-1 L3,4 library; source: E. coli BL21-AI, pET101/D, secreted with the OmpA signal of Bordetella avium, purified (Ni-NTA)
# Columns and labels:
# [1] = biological target: T1, sbAvd-2 (steroid-binding avidin mutant) (Gallus gallus, UniProt P02701, D37R/L38M/G39N/S40H/T59A/A60T/T62N); assay: SPR competition on testosterone-BSA chip, […] inhibitor
# T1 construct: gene AVD; full avidin core, homotetramer, produced in E. coli
# [2] = biological target: T2, sbAvd-1 (steroid-binding avidin mutant) (Gallus gallus, UniProt P02701, D37R/L38M/G39N/S40H); assay: as above
# T2 construct: gene AVD; full avidin core, homotetramer, produced in E. coli
# [3] = biological target: T1, sbAvd-2 (steroid-binding avidin mutant); assay: microplate binding to immobilized HSA-conjugated progesterone
# [4] = biological target: T2, sbAvd-1 (steroid-binding avidin mutant); assay: as above
# [5] = biological target: the molecule itself; assay: SEC; FPLC gel-filtration, Superdex 200 10/300 GL, calibrated with a molecular-mass standard; 20 mM sodium phosphate pH 7.4, 1 M NaCl, 20 mM imidazole; 90-193 μg protein in 500 μl
molecule,measurement,setting,value
"C[C@]12CC[C@H](OS(=O)(=O)O)CC1=CC[C@@H]1[C@@H]2CC[C@]2(C)C(=O)CC[C@@H]12 [DHEAS, dehydroepiandrosterone sulfate]","SPR competition on testosterone-BSA chip, 50 μM inhibitor",[1],The binding of sbAvd-2 to testosterone was found to be most efficiently inhibited by testosterone and DHEAS
same,"SPR competition on testosterone-BSA chip, 50 μM inhibitor",[2],SbAvd-1 was found to be cross-reactive with androgens highly similar to testosterone (DHEAS and androstenedione)
"CC(=O)[C@H]1CC[C@H]2[C@@H]3CCC4=CC(=O)CC[C@]4(C)[C@H]3CC[C@]12C [PRO, progesterone]",microplate binding to immobilized HSA-conjugated progesterone,[3],these modified Avds showed clear binding to testosterone and progesterone
same,microplate binding to immobilized HSA-conjugated progesterone,[4],"sbAvd-1 also binds other steroid hormones, such as progesterone and DHEAS"
B1,stoichiometry N,[5],4
B2,stoichiometry N,[5],4
